Like-named read-outs stand apart in the source and are kept apart here.
Columns and labels:
[1] = system: LNCaP prostate cancer xenograft; test: Human prostate cancer xenograft in nude mice, oral dosing; assay type: in vivo; conditions: oral 100 mg/Kg daily 28 days
Method: 3×10^6 LNCaP cells suspended in matrigel were subcutaneously injected (on the right flank) into 6 week old male athymic nude mice. Tumors were measured as described above. Treatment with CB-03-06 and controls compounds was initiated after the tumor had reached 50 mm^3. […] Oral dosing was daily (100 mg/Kg in 200 microL/mouse) for 28 consecutive days. Results were plotted as average change in tumor volume relative to the start of treatment.

MDA-MB-231 = test: In vitro proliferation / cytotoxic assay on breast cancer cells (Examples 14, 25); assay type: cell-based; conditions: Homo sapiens
Method: Data shown in Table I were fitted through sigmoidal dose response curves and analyzed using Prizm statistical.
For the cytotoxic assay, cells were seeded in 96-well flat bottom culture plates in media containing charcoal stripped serum. After 24 hours, test compounds were added to the cells. DMSO was used as the vehicle negative control and RU486 as the positive control. After 72 hour incubation, cells were harvested and lysed to determine cell viability using the Cell Titer Glow assay.

wild type AR (AR-LBD) = biological target: T1, wild type AR (AR-LBD) (Rattus norvegicus, UniProt P15207); test: Polar Screen fluorescence polarization competition assay; assay type: binding
T1 construct: purchased Life Technologies
T1 sequence (P15207 651-882 limits assumed): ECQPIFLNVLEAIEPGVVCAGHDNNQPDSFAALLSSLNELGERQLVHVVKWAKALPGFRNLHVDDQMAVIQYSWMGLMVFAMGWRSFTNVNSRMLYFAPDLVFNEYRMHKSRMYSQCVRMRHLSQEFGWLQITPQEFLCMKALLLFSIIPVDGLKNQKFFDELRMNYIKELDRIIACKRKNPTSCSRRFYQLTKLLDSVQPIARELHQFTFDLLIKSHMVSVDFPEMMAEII
Method: Briefly, the AR is added to a fluorescent androgen ligand (Fluormone™ AL Green) to form an AR-LBD complex. Competitors displace the fluorescent Fluormone™ AL Green ligand from the AR-LBD causing the fluorescent ligand to tumble rapidly during its fluorescence lifetime, resulting in a low polarization value. Non competitors will not displace the fluorescent ligand from the complex, so the polarization value remains high. The shift in polarization value in the presence of test compounds is used to determine relative affinity of test compounds for AR-LBD.

[2] = In vitro metabolism in plasma; assay type: in vitro ADME; conditions: human plasma, 37 C, through 8 hours
Method: (§1) To obtain some insight on the metabolism of CB-03-06 in human and rat plasma, a specific assay was designed. Briefly, the compound was incubated at different time points in human and rat plasma at 37 C. After incubation, the samples were tested for presence of the intact compound by liquid chromatography.

[3] = system: caspases 8, 9, 3/7 in LNCaP cells; test: Caspase 8, 9 and 3/7 activity; assay type: cell-based; conditions: 24 hour incubation, Enzalutamide positive control
Method: After 24 hours, test compounds were added to cells. Gemcitabine (a known pancreatic cancer chemotherapeutic agent) and DMSO were used as positive and negative controls, respectively. There were three incubation time points: 8 hours, 24 hours, and 48 hours. After each time point, cells were lysed in multiplex buffer containing the caspase 3/7 substrate combined with either caspase 8 or caspase 9 reagents, which contain stable luciferase in proprietary buffers. The lysates were transferred to white opaque 96-well plates before measuring luminescence on a Tecan Safire instrument. Parallel plates treated identically were used to determine cell viability. All caspase activities were corrected for the number of viable cells.
The same assay was repeated using LNCaP prostate cancer cell lines. […] The results are shown in FIG. 12 after 24 hour incubation when the caspase activities peaked.

[4] = In vitro metabolism in plasma; assay type: in vitro ADME, rat; conditions: 37 C
Method: as §1

[5] = system: caspases 8, 9, 3/7 in MiaPaca2 cells; test: Caspase 8, 9 and 3/7 activity; assay type: cell-based
Method: To better analyze the phenomenon, the enzymatic activity of Caspase 8 (initiator caspase for Extrinsic Pathway) and Caspase 9 (initiator caspase for Intrinsic Pathway) and of Caspases 3 and 7 (effector caspases) were measured.

LNCaP = test: Cell viability of the cells of the PSA assay; assay type: cell-based; conditions: Homo sapiens, 48 h, read-out: cell viability IC50
Method: Prostate-specific antigen, or PSA, is a protein produced by cells of the prostate gland. The PSA test measures the level of PSA in a person's blood. The blood level of PSA is often elevated in men with prostate cancer and it used as surrogate marker to test prostate cancer progression in human population. […] LNCaP cells were seeded in 96-well flat bottom culture plates in media containing charcoal stripped serum with or without 10 nM DHT. […] After 48 hours incubation with test compounds, supernatants were harvested and tested with an Elisa assay for PSA and the same cells were lysed for cell viability assessment.

MiaPaca2 = test: Annexin V / propidium iodide apoptosis flow cytometry; assay type: cell-based; conditions: 24 hours, control 12%
Method: CB-03-06 was evaluated to determine if the mechanism of cytotoxicity on cancer cell lines was mediated by apoptosis and cell cycle arrest. Cancer cell lines were seeded in 6-well flat bottom plates. After 24 hours, test compounds or DMSO vehicle (negative control) were added. After an additional 24 hours, cells were scraped and stained with fluorescein conjugated Annexin V and propidium iodide, and analyzed by flow cytometry.

[6] = biological target: T2, glucocorticoid receptor (GR) (Homo sapiens, UniProt P04150); test: GR reporter agonist assay (induction of luminescence); assay type: cell-based; conditions: agonist mode
T2 construct: endogenous in cells; host or cells: human kidney epithelial cells
T2 sequence (P04150 1-777): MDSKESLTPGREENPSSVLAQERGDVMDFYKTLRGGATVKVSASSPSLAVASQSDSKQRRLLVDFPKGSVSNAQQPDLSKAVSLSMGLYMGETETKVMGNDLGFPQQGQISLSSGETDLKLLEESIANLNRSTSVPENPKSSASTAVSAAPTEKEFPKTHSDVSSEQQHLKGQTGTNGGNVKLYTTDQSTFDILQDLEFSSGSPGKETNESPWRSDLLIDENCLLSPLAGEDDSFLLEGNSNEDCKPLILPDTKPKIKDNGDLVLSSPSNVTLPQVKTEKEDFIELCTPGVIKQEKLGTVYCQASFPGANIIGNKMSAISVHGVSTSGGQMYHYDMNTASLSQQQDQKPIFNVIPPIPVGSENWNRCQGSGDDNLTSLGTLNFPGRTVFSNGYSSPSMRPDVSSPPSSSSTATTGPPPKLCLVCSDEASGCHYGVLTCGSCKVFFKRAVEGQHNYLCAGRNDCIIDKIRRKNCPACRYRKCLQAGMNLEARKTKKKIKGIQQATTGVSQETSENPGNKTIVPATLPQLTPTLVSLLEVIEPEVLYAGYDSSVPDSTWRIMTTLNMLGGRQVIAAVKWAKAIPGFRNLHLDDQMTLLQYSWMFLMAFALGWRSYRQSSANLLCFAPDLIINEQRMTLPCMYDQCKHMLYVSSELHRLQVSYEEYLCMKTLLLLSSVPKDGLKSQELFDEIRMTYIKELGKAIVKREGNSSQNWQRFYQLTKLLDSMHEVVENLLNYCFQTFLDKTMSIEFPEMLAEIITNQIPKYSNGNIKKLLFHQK
Method: The androgen and glucocorticoid hormones elicit divergent and often opposing effects in cells, tissues, and animals. […] CB-03-06 GR antagonist and agonist activities were tested on an in vitro assay. Briefly, human kidney epithelial cells were transfected with DNA construct containing GR binding sites linked to luminescent based reporter molecule. After 24 hours, cells were treated under antagonist or agonist modes. After an additional 24 hours, luminescence which is proportional to GR agonist transcriptional activity was quantitated.
Agonist Assay—was based on induction of luminescence by CB-03-06
The agonist activity of CB-03-06 was compared to a RU486 which is known to not have agonist activity.

C[C@]12CCC(=O)C=C1CC[C@@H]1[C@@H]2CC[C@@]2(C)[C@H]1CC[C@]2(OC(=O)c1ccccc1)C(=O)CO [CB-03-06, cortexolone 17α-benzoate]
anti-tumor activity, change in tumor volume [1]: strong anti-tumor activity against prostate cancer | IC50 (MDA-MB-231; MDA-MB-231, 72 h): 46 µM | IC50 (MDA-MB-231; MDA-MB-231, read-out: in vitro proliferation IC50): 46 µM | IC50 (wild type AR (AR-LBD)): 2.6 µM | intact compound, % of initial concentration [2]: over 90% | Initiator (8 and 9) and Effector (3/7) caspase activities [3]: induced Initiator (8 and 9,) and Effector (3/7) caspase activities better than Enzalutamide | degradation in rat compared to human plasma [4]: degrades faster in rat compared to human plasma | intact compound, % of initial concentration ([4]; rat plasma, through 8 hours): over 90% | caspase 8 and 9 activity, increase compared to the control ([5]; 20 or 50 μM, evident after 8 hours): ≤ 7 fold | Caspase 3/7 induction ([5]; 48 hour incubation): induced by CB-03-06 at high level | IC50 (LNCaP): 12 µM | cells in apoptosis (early and late) (MiaPaca2): 56 % cells | GR agonist activity plateau [6]: 45 % of Dex maximum | concentration activating the GR to the same extent ([6]; CB-03-06 compared with Dex): 14 nM

Reference: patent US10231980B2, “Cortexolone 17alpha-benzoate for use in the treatment of tumours” (COSMO TECHNOLOGIES LTD., priority 2014, dated 2019)
